Several values for one entry are separate records, joined by “and”; a condition that tells them apart may be missing. Equal entries are not always repeated. Where two headings read alike, the source gives them in different places.

For orientation: EC50 means the concentration that produces a half-maximal response.

The target in one test is T1, active SAH hydrolase (Bos taurus, UniProt Q3MHL4).
T1 construct: SAH hydrolase is purified with classical chromatographical methods to homogeneity from organs e.g. from bovine kidney; from tissue; host or cells: bovine kidney
T1 sequence (Q3MHL4 2-432 limits assumed): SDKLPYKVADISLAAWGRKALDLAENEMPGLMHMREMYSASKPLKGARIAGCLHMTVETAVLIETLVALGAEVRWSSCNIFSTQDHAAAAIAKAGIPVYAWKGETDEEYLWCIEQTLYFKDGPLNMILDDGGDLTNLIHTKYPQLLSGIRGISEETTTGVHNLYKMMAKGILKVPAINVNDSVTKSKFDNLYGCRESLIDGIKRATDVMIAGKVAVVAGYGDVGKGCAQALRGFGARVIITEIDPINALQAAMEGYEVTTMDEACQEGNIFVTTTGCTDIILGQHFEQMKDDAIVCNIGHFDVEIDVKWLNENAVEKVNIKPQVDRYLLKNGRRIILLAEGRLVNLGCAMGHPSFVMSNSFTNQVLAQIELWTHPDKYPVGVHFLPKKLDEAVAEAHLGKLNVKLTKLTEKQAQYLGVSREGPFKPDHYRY
The experiment in a line: 3H-adenosine displacement using active SAH hydrolase. Type of test: binding, bovine. The procedure: SAH hydrolase is purified with classical chromatographical methods to homogeneity from organs e.g. from bovine kidney. Fresh bovine kidney (450 g), obtained from the local slaughterhouse were homogenized in two volumes of 50 mM potassium phosphate buffer pH 7.0, 1 mM DTT, 1 mM EDTA and 10 mM PMSF. The homogenate was centrifuged at 20000×g for 60 min. […] After centrifugation at 20000×g for 30 min the precipitate was disolved in 300-400 ml 20 mM Tris/HCl pH 7.5, 1 mM DTT and 1 mM EDTA and dialyzed against the same buffer.

The target of a further test is T2, reduced SAH hydrolase (Bos taurus, UniProt Q3MHL4).
T2 construct: SAH hydrolase is purified with classical chromatographical methods to homogeneity from organs e.g. from bovine kidney; from tissue; host or cells: bovine kidney
T2 sequence (Q3MHL4 2-432 limits assumed): T1 sequence (Q3MHL4 2-432 limits assumed)
The experiment in a line: 3H-adenosine displacement using reduced SAH hydrolase. The test is classed as binding, bovine. Here is the method: 100 μl reduced SAH hydrolase (1 μg/300 μl)
50 μl buffer—20 mM Tris, 40 mM Hepes pH 7.0
Therefore the samples are incubated over night. The assay mixture is separated through nitrocellulose filters with a filtration equipment.

[1] abbreviates: active SAH hydrolase, read-out: EC50 values of 3H-adenosine displacement, active SAH hydrolase.
The mark [2] stands for this setting: reduced SAH hydrolase, read-out: EC50 values of 3H-adenosine displacement, reduced SAH hydrolase.

For `Nc1ncnc2c1ncn2[C@H]1C[C@H](O)[C@@H](CO)O1` [2′-deoxyadenosine], the EC50 on active SAH hydrolase (setting [1]) came out at 0.094 µM; on reduced SAH hydrolase (setting [2]) it was 0.63 µM.

For `Nc1ncnc2c1ncn2[C@@H]1O[C@H](COP(=O)(O)OP(=O)(O)O)[C@@H](O)[C@H]1O` [ADP], the EC50 at active SAH hydrolase (setting [1]) was 10 µM; at reduced SAH hydrolase (setting [2]), greater than 100 µM.

As for `Nc1ncnc2c1ncn2[C@@H]1O[C@H](COP(=O)(O)O)[C@@H](O)[C@H]1O` [AMP], the EC50 is 10 µM on active SAH hydrolase (setting [1]); 100 µM and > 100 µM on reduced SAH hydrolase (setting [2]).

As for `CCNC(=O)[C@H]1O[C@@H](n2cnc3c(N)ncnc32)[C@H](O)[C@@H]1O` [NECA], the results for the EC50 on active SAH hydrolase (setting [1]) and at reduced SAH hydrolase (setting [2]) were 0.24 µM and greater than 100 µM, respectively.

As for `Nc1ncnc2c1ncn2[C@@H]1O[C@H](CSCC[C@H](N)C(=O)O)[C@@H](O)[C@H]1O` [SAH, S-adenosylhomocysteine], the results for the EC50 on active SAH hydrolase (setting [1]) and at reduced SAH hydrolase (setting [2]) were 0.246 µM and 0.4 µM, respectively.

Consider `Nc1ncnc2nc[nH]c12` [adenine], for which the EC50 was 11.5 µM at active SAH hydrolase (setting [1]) and greater than 100 µM at reduced SAH hydrolase (setting [2]).

For `N[C@@H](CCS)C(=O)O` [homocysteine], the EC50 at active SAH hydrolase (setting [1]) and at reduced SAH hydrolase (setting [2]) was 5 µM in each case.

For `OC[C@H]1O[C@@H](n2cnc3c(O)ncnc32)[C@H](O)[C@@H]1O` [inosine], the EC50 on active SAH hydrolase (setting [1]) and at reduced SAH hydrolase (setting [2]) was 10 µM in each case.

For `Cn1c(=O)c2[nH]cnc2n(C)c1=O` [theophylline], the EC50 at active SAH hydrolase and at reduced SAH hydrolase was greater than 100 µM throughout.

Take diadenosine-dialdehyde: the EC50 at active SAH hydrolase (setting [1]) was 0.18 µM; on reduced SAH hydrolase (setting [2]) it was 10 µM.

These data come from US6395256B1 (priority 1997, dated 2002).
